This passage reports photoluminescence quantum yield results from the Deep4Chem optical property database.

The structures appear in SMILES notation. Several values for one entry are separate records, joined by “and”; a condition that tells them apart may be missing. Identical values can stand only once.

This data set in a line: photoluminescence quantum yield (fraction); solvent given as SMILES.

For the molecule `CC(C)[Si](C#Cc1c2cc3ccccc3cc2c(C#C[Si](C(C)C)(C(C)C)C(C)C)c2nc3c(ccc4ccccc43)nc12)(C(C)C)C(C)C`, the photoluminescence quantum yield (in CCCCCC) was 0.22.
Consider `CCCCOc1ccc2cc(-c3ccc(C)cc3)c(=O)oc2c1`, for which the photoluminescence quantum yield is 0.611 (in C1CCOC1), 0.564 (in CCCCCC), 0.597 (in CCO) and 0.585 (in CS(C)=O).
Under “in O=P(c1ccccc1)(c1ccccc1)c1ccccc1Oc1ccccc1P(=O)(c1ccccc1)c1ccccc1”, `CC1(C)c2ccccc2N(c2ccc3c(c2)c2cc(N4c5ccccc5C(C)(C)c5ccccc54)cc4c5ccccc5n3c42)c2ccccc21` had a photoluminescence quantum yield of 0.96.
Molecule `CCCCN(CCCC)c1ccc(C#Cc2cc(C#Cc3ccc(C#N)cc3)c(C#Cc3ccc(N(CCCC)CCCC)cc3)cc2C#Cc2ccc(C#N)cc2)cc1` gave a photoluminescence quantum yield (in ClCCl) of 0.25.
With `C[N+]1=C(/C=C/C=C2/N(CCCS(=O)(=O)[O-])c3ccccc3C2(C)C)C(C)(C)c2ccccc21`, for the setting “in CS(C)=O”, the photoluminescence quantum yield turned out to be 0.1.
Consider `CCCSc1ccc2n1[B-](F)(F)[N+]1=CC=CC1=C2c1ccccc1`, for which the photoluminescence quantum yield runs as follows: (in CC#N) 0.03; (in CCCCCC) 0.03; (in CCOC(C)=O) 0.03; (in CO) 0.02; (in ClCCl) 0.04.
As to `N#Cc1ccc(-n2cccc2)cc1`, the photoluminescence quantum yield stood at 0.024 (in C1CCOC1); 0.024 (in CC#N); 0.077 (in CCCCCC); 0.023 (in CCOCC); 0.022 (in ClCCl).
With `CCn1c2ccccc2c2cc(-c3cc(-c4ccc5c(c4)c4ccccc4n5CC)nc(-c4ccc(C#N)cc4)n3)ccc21`, the photoluminescence quantum yield stood at 0.08 (in C1CCOC1); 0.09 (in CCOC(C)=O); 0.07 (in CN(C)C=O); 0.34 (in Cc1ccccc1); 0.11 (in ClCCl).
For the molecule `CC1=[N+]2C(=C(c3ccccc3)c3ccc(/C=C/c4ccc(C(=C(c5ccccc5)c5ccccc5)c5ccccc5)cc4)n3[B-]2(F)F)C=C1`, where the note is “in C1CCOC1”, the photoluminescence quantum yield came to 0.746.
With `C(=C\c1ccc(N(c2ccccc2)c2ccccc2)cc1)/c1ccc(-c2nc(-c3ccc(/C=C/c4ccc(N(c5ccccc5)c5ccccc5)cc4)cc3)nc(-c3ccc(/C=C/c4ccc(N(c5ccccc5)c5ccccc5)cc4)cc3)n2)cc1`, the photoluminescence quantum yield (in ClC(Cl)Cl) was 0.27.
`CCCN1C(=O)c2c3c(c4c(c2C1=O)CCc1cc(-c2ccc(N(C)C)cc2)c(OC)cc1-4)-c1cc(OC)c(-c2ccc(N(C)C)cc2)cc1CC3`: the photoluminescence quantum yield stood at 0.752 (in C1CCCCC1); 0.069 (in C1CCOC1); 0.065 (in CCOC(C)=O); 0.726 (in Cc1ccccc1); 0.023 (in ClCCl).
Regarding `O=c1oc2c(ccc3ccccc32)nc1-c1ccccc1`, the photoluminescence quantum yield was 0.5 (in CC#N); 0.32 (in CCCCCC); 0.45 (in CO); 0.46 and 0.534 (in c1ccccc1).
Under “in ClCCl”, `Cc1ccc(-c2cc(/C=C/c3ccc(N(c4ccccc4)c4ccccc4)cc3)c(-c3ccc(C)cc3)cc2/C=C/c2ccc(N(c3ccccc3)c3ccccc3)cc2)cc1` gave a photoluminescence quantum yield of 0.74.
On to `Cc1cc2c(o1)=CC1=Cc3cc4oc(C)cc4n3[B-](F)(F)[N+]=21`, for which the photoluminescence quantum yield was found to be 0.93 (in C1CCOC1); 0.95 (in CC#N); 0.97 (in CCO); 0.96 (in CO); 0.94 (in Cc1ccccc1); 0.96 (in ClC(Cl)Cl).
`CCOC(=O)c1ccc(C2=C(c3ccccc3)c3sc4ccccc4[n+]3[B-](F)(F)O2)cc1` displayed a photoluminescence quantum yield (in C1CCOC1) of 0.011.
Regarding `CC(C)(C)c1ccc2c(c1)c1cc(C(C)(C)C)ccc1n2-c1nc2ccccc2nc1-n1c2ccc(C(C)(C)C)cc2c2cc(C(C)(C)C)ccc21`, where the note is “in Cc1ccccc1”, the photoluminescence quantum yield was found to be 0.32.
`CCOC(=O)C1=C(C(=O)OCC)C2(c3ccccc3-c3ccccc32)[C@@H](c2ccccc2)C=C2c3cc(OC)c(OC)cc3CCN21`: the photoluminescence quantum yield (in ClCCl) amounted to 0.00154.
The molecule `Cc1nc2cc3c4c(cccc4c2o1)C(=O)OC3=O` showed a photoluminescence quantum yield (in CCO) of 0.1.
Molecule `CCCCCCCCOc1ccc(C2=C3C(C)=C(C#Cc4ccc(B(c5c(C)cc(C)cc5C)c5c(C)cc(C)cc5C)cc4)C(C)=[N+]3[B-](F)(F)n3c(C)c(C#Cc4ccc(B(c5c(C)cc(C)cc5C)c5c(C)cc(C)cc5C)cc4)c(C)c32)cc1` showed a photoluminescence quantum yield (in ClCCl) of 0.65.
Regarding `COc1ccc(/C=C/c2ccccc2)cc1`, the photoluminescence quantum yield (in C1CCCCC1) came to 0.022; the photoluminescence quantum yield (in CC#N) was 0.007; the photoluminescence quantum yield (in CC(C)O) is 0.011; the photoluminescence quantum yield (in CCCCOCCCC) turned out to be 0.02; the photoluminescence quantum yield (in CCOC(C)=O) was 0.016; the photoluminescence quantum yield (in CCOCC) came out at 0.015.
Take `C[Si]1(c2ccccc2)C(c2ccc3c4ccccc4n(-c4ccccc4)c3c2)=C(c2ccccc2)C(c2ccccc2)=C1c1ccc2c3ccccc3n(-c3ccccc3)c2c1`: the photoluminescence quantum yield (in C1CCOC1) was found to be 0.0575.
For the molecule `COc1c2ccccc2c(OC)c2c1c1c(C)ccc(OC)c1n2C`, the photoluminescence quantum yield is, setting by setting: (in C1CCCCC1) 0.23; (in CC#N) 0.26; (in CO) 0.25; (in ClCCl) 0.31.
Where the note is “in CN(C)C=O”, `S=c1[nH]nc(-c2ccc(/C=C/c3ccc(-c4n[nH]c(=S)o4)cc3)cc2)o1` showed a photoluminescence quantum yield of 0.33.
Turning to `COc1ccc2c(c1)c1ccccc1n2-c1nc2ccccc2nc1-n1c2ccccc2c2cc(OC)ccc21`, the photoluminescence quantum yield (in Cc1ccccc1) is 0.13.
`O=S1c2ccc(-c3c4ccccc4cc4ccccc34)cc2-c2cc(-c3c4ccccc4cc4ccccc34)ccc21`: the photoluminescence quantum yield runs as follows: (in C1CCCCC1) 0.31; (in CC#N) 0.14; (in ClCCl) 0.27.
Where the note is “in ClCCl”, `CC(=O)c1c(N[C@@H](Cc2ccc(O)cc2)C(=O)O)c2ccc(N(C)C)cc2oc1=O` gave a photoluminescence quantum yield of 0.005.
Turning to `CC(C)(C)c1ccc(-c2nnc(-c3c(-n4c5ccccc5c5ccccc54)c(-n4c5ccccc5c5ccccc54)c(-n4c5ccccc5c5ccccc54)c(-n4c5ccccc5c5ccccc54)c3-n3c4ccccc4c4ccccc43)o2)cc1`, the photoluminescence quantum yield (in Cc1ccccc1) was found to be 0.13.
As for `N#C/C(=C\c1ccc(C=C(c2ccccc2)c2ccccc2)cc1)c1ccc([N+](=O)[O-])cc1`, the photoluminescence quantum yield (in C1CCOC1) turned out to be 0.046.
Consider `CNc1cccc2c1-c1ccccc1C2=O`, for which the photoluminescence quantum yield (in C1CCCCC1) was determined as 0.094, the photoluminescence quantum yield (in CC#N) is 0.0051, the photoluminescence quantum yield (in CCO) was 0.00014 and the photoluminescence quantum yield (in c1ccccc1) worked out at 0.063.
For the setting “in Cc1ccccc1”, `Cc1ccc(-n2c3ccc(-c4ccc(-c5nc6ccccc6n5-c5ccccc5)cc4)cc3c3cc(-c4ccc(-c5nc6ccccc6n5-c5ccccc5)cc4)ccc32)cc1` returned a photoluminescence quantum yield of 0.65.
On to `CCCCC1=Cc2c3ccc4cccc5ccc(c6cc(-c7ccc(N(c8ccccc8)c8ccccc8)cc7)n(c26)P1(=O)c1ccccc1)c3c45` (centres undefined), for which the photoluminescence quantum yield reads like this: (in C1CCCCC1) 0.56; (in C1CCOC1) 0.49; (in C1COCCO1) 0.61; (in CC#N) 0.39; (in CC(C)=O) 0.52; (in CO) 0.29. Besides, the photoluminescence quantum yield was 0.61 (in Cc1ccccc1), 0.58 (in ClC(Cl)Cl) and 0.62 (in ClCCl).
